Like-named read-outs stand apart in the source and are kept apart here.
What was measured:
CCRF-CEM = assay: NCI60 one-dose screen (10 μM), Leukemia; format: cell-based; settings: Homo sapiens, read-out: Growth percent rate
HL-60(TB) = assay: NCI60 one-dose screen (10 μM), Leukemia; format: cell-based; settings: Homo sapiens
K-562 = assay: NCI60 one-dose screen (10 μM), Leukemia; format: cell-based; settings: Homo sapiens
MOLT-4 = assay: NCI60 one-dose screen (10 μM), Leukemia; format: cell-based, human; settings: Homo sapiens
RPMI-8226 = assay: NCI60 one-dose screen (10 μM), Leukemia; format: cell-based; settings: Homo sapiens
A549/ATCC = assay: NCI60 one-dose screen (10 μM), Non-small Cell Lung Cancer; format: cell-based; settings: Homo sapiens
EKVX = assay: as above; format: cell-based; settings: Homo sapiens, read-out: Growth percent rate
HOP-62 = assay: as above; format: cell-based; settings: Homo sapiens
NCI-H23 = assay: as above; format: cell-based; settings: Homo sapiens
NCI-H322M = assay: as above; format: cell-based; settings: Homo sapiens, read-out: Growth percent rate
NCI-H460 = assay: as above; format: cell-based; settings: Homo sapiens
NCI-H522 = assay: as above; format: cell-based; settings: Homo sapiens
HCC-2998 = assay: NCI60 one-dose screen (10 μM), Colon Cancer; format: cell-based; settings: Homo sapiens
HCT-116 = assay: NCI60 one-dose screen (10 μM), Colon Cancer; format: cell-based; settings: Homo sapiens
HT29 = assay: NCI60 one-dose screen (10 μM), Colon Cancer; format: cell-based; settings: Homo sapiens
KM12 = assay: NCI60 one-dose screen (10 μM), Colon Cancer; format: cell-based, human; settings: Homo sapiens
SW-620 = assay: NCI60 one-dose screen (10 μM), Colon Cancer; format: cell-based; settings: Homo sapiens
SF-268 = assay: NCI60 one-dose screen (10 μM), CNS Cancer; format: cell-based; settings: Homo sapiens
SF-295 = assay: NCI60 one-dose screen (10 μM), CNS Cancer; format: cell-based; settings: Homo sapiens
SNB-19 = assay: NCI60 one-dose screen (10 μM), CNS Cancer; format: cell-based; settings: Homo sapiens
SNB-75 = assay: NCI60 one-dose screen (10 μM), CNS Cancer; format: cell-based, human; settings: Homo sapiens
U251 = assay: NCI60 one-dose screen (10 μM), CNS Cancer; format: cell-based; settings: Homo sapiens
MALME-3M = assay: NCI60 one-dose screen (10 μM), Melanoma; format: cell-based; settings: Homo sapiens, read-out: Growth percent rate
M14 = assay: NCI60 one-dose screen (10 μM), Melanoma; format: cell-based; settings: Homo sapiens
MDA-MB-435 = assay: NCI60 one-dose screen (10 μM), Melanoma; format: cell-based; settings: Homo sapiens
SK-MEL-2 = assay: NCI60 one-dose screen (10 μM), Melanoma; format: cell-based; settings: Homo sapiens
SK-MEL-28 = assay: NCI60 one-dose screen (10 μM), Melanoma; format: cell-based; settings: Homo sapiens
SK-MEL-5 = assay: NCI60 one-dose screen (10 μM), Melanoma; format: cell-based, human; settings: Homo sapiens
UACC-257 = assay: NCI60 one-dose screen (10 μM), Melanoma; format: cell-based; settings: Homo sapiens
IGROV1 = assay: NCI60 one-dose screen (10 μM), Ovarian Cancer; format: cell-based; settings: Homo sapiens
OVCAR-3 = assay: NCI60 one-dose screen (10 μM), Ovarian Cancer; format: cell-based; settings: Homo sapiens
OVCAR-4 = assay: NCI60 one-dose screen (10 μM), Ovarian Cancer; format: cell-based; settings: Homo sapiens
OVCAR-8 = assay: NCI60 one-dose screen (10 μM), Ovarian Cancer; format: cell-based; settings: Homo sapiens
786–0 = assay: NCI60 one-dose screen (10 μM), Renal Cancer; format: cell-based; settings: Homo sapiens
A498 = assay: NCI60 one-dose screen (10 μM), Renal Cancer; format: cell-based; settings: Homo sapiens
ACHN = assay: NCI60 one-dose screen (10 μM), Renal Cancer; format: cell-based; settings: Homo sapiens, read-out: Growth percent rate
CAKI-1 = assay: NCI60 one-dose screen (10 μM), Renal Cancer; format: cell-based; settings: Homo sapiens
SN12C = assay: NCI60 one-dose screen (10 μM), Renal Cancer; format: cell-based; settings: Homo sapiens, read-out: Growth percent rate
TK-10 = assay: NCI60 one-dose screen (10 μM), Renal Cancer; format: cell-based; settings: Homo sapiens
DU-145 = assay: NCI60 one-dose screen (10 μM), Prostate Cancer; format: cell-based; settings: Homo sapiens
MCF7 = assay: NCI60 one-dose screen (10 μM), Breast Cancer; format: cell-based; settings: Homo sapiens
[1] = test system: 60 human tumor cell lines (NCI60); assay: NCI60 one-dose screen (10 μM), whole panel; format: cell-based; settings: for antiproliferative effect (in words): 10 μM one-dose, NCI60; for activity at 10 µM: read-out: Growth percent rate, Mean
[2] = 10 μM, Non-small Cell Lung Cancer

CCC12C=CCN3CC[C@@]4(c5ccc(OC)cc5N(C)[C@H]4[C@@](O)(C(=O)OC)[C@@H]1OC(C)=O)[C@@H]32 (some centres unmarked) [Compound 1, vindoline]
activity at 10 µM (CCRF-CEM): 102% | activity at 10 µM (HL-60(TB); HL-60, read-out: Growth percent rate): 96.7% | activity at 10 µM (K-562; K562, read-out: Growth percent rate): 89.3% | activity at 10 µM (MOLT-4; MOLT-4, read-out: Growth percent rate): 92.7% | activity at 10 µM (RPMI-8226; RPMI-8226, read-out: Growth percent rate): 105% | activity at 10 µM (A549/ATCC; A549, read-out: Growth percent rate): 101% | activity at 10 µM (EKVX): 92% | activity at 10 µM (HOP-62; HOP-62, read-out: Growth percent rate): 99% | activity at 10 µM (NCI-H23; NCI-H23, read-out: Growth percent rate): 95.3% | activity at 10 µM (NCI-H322M): 109% | activity at 10 µM (NCI-H460; NCI-H460, read-out: Growth percent rate): 120% | activity at 10 µM (NCI-H522; NCI-H522, read-out: Growth percent rate): 99.7% | activity at 10 µM (HCC-2998; HCC 2998, read-out: Growth percent rate): 101% | activity at 10 µM (HCT-116; HCT-116, read-out: Growth percent rate): 116% | activity at 10 µM (HT29; HT-29, read-out: Growth percent rate): 108% | activity at 10 µM (KM12; KM12, read-out: Growth percent rate): 108% | activity at 10 µM (SW-620; SW-620, read-out: Growth percent rate): 121% | activity at 10 µM (SF-268; SF-268, read-out: Growth percent rate): 122% | activity at 10 µM (SF-295; SF-295, read-out: Growth percent rate): 103% | activity at 10 µM (SNB-19; SNB-19, read-out: Growth percent rate): 102% | activity at 10 µM (SNB-75; SNB-75, read-out: Growth percent rate): 119% | activity at 10 µM (U251; U-251, read-out: Growth percent rate): 95.9% | activity at 10 µM (MALME-3M; Malme-3M): 147% | activity at 10 µM (M14; M14, read-out: Growth percent rate): 105% | activity at 10 µM (MDA-MB-435; MDA-MB-435, read-out: Growth percent rate): 104% | activity at 10 µM (SK-MEL-2; SK-MEL-2, read-out: Growth percent rate): 106% | activity at 10 µM (SK-MEL-28; SK-MEL-28, read-out: Growth percent rate): 134% | activity at 10 µM (SK-MEL-5; SK-MEL-5, read-out: Growth percent rate): 89.2% | activity at 10 µM (UACC-257; UACC-257, read-out: Growth percent rate): 95.8% | activity at 10 µM (IGROV1; IGROV-1, read-out: Growth percent rate): 145% | activity at 10 µM (OVCAR-3; OVCAR-3, read-out: Growth percent rate): 127% | activity at 10 µM (OVCAR-4; OVCAR-4, read-out: Growth percent rate): 136% | activity at 10 µM (OVCAR-8; OVCAR-8, read-out: Growth percent rate): 103% | activity at 10 µM (786–0; 786-0, read-out: Growth percent rate): 97.5% | activity at 10 µM (A498; A498, read-out: Growth percent rate): 137% | activity at 10 µM (ACHN): 105% | activity at 10 µM (CAKI-1; CAKI-1, read-out: Growth percent rate): 105% | activity at 10 µM (SN12C): 100% | activity at 10 µM (TK-10; TK-10, read-out: Growth percent rate): 97.5% | activity at 10 µM (DU-145; DU-145, read-out: Growth percent rate): 119% | activity at 10 µM (MCF7; MCF7, read-out: Growth percent rate): 89.9% | antiproliferative effect (in words) [1]: a notable antiproliferative effect was not shown | antiproliferative effect (in words) ([1]; listed as vindoline): does not show any anticancer effect | activity at 10 µM ([1]; Homo sapiens): 107%

CCC12C=CCN3CCC4(c5ccc(OC)cc5N(C)C4C(O)(C(=O)OC)C1OC(=O)CCCN1CCN(C)CC1)C32 (centres unmarked) [Compound 3]
activity at 10 µM (CCRF-CEM; 10 μM, Leukemia): 108% | activity at 10 µM (HL-60(TB); 10 μM, HL-60(TB), Leukemia, read-out: Growth percent rate): 91% | activity at 10 µM (K-562; K562, 10 μM, K-562, Leukemia, read-out: Growth percent rate): 66.9% | activity at 10 µM (MOLT-4; 10 μM, MOLT-4, Leukemia, read-out: Growth percent rate): 102% | activity at 10 µM (RPMI-8226; 10 μM, RPMI-8226, Leukemia, read-out: Growth percent rate): 112% | activity at 10 µM (A549/ATCC; 10 μM, A549/ATCC, Non-small Cell Lung Cancer, read-out: Growth percent rate): 98.2% | activity at 10 µM (EKVX; [2]): 96.5% | activity at 10 µM (HOP-62; 10 μM, HOP-62, Non-small Cell Lung Cancer, read-out: Growth percent rate): 79.9% | activity at 10 µM (NCI-H23; 10 μM, NCI-H23, Non-small Cell Lung Cancer, read-out: Growth percent rate): 90% | activity at 10 µM (NCI-H322M; [2]): 96.9% | activity at 10 µM (NCI-H460; 10 μM, NCI-H460, Non-small Cell Lung Cancer, read-out: Growth percent rate): 97.7% | activity at 10 µM (NCI-H522; 10 μM, NCI-H522, Non-small Cell Lung Cancer, read-out: Growth percent rate): 45.9% | activity at 10 µM (HCC-2998; 10 μM, HCC-2998, Colon Cancer, read-out: Growth percent rate): 92.4% | activity at 10 µM (HCT-116; 10 μM, HCT-116, Colon Cancer, read-out: Growth percent rate): 112% | activity at 10 µM (HT29; HT-29, 10 μM, HT29, Colon Cancer, read-out: Growth percent rate): 98.8% | activity at 10 µM (KM12; 10 μM, KM12, Colon Cancer, read-out: Growth percent rate): 85.3% | activity at 10 µM (SW-620; 10 μM, SW-620, Colon Cancer, read-out: Growth percent rate): 87% | activity at 10 µM (SF-268; 10 μM, SF-268, CNS Cancer, read-out: Growth percent rate): 90.8% | activity at 10 µM (SF-295; 10 μM, SF-295, CNS Cancer, read-out: Growth percent rate): 96.2% | activity at 10 µM (SNB-19; 10 μM, SNB-19, CNS Cancer, read-out: Growth percent rate): 90.6% | activity at 10 µM (SNB-75; 10 μM, SNB-75, CNS Cancer, read-out: Growth percent rate): 85.3% | activity at 10 µM (U251; U-251, 10 μM, U251, CNS Cancer, read-out: Growth percent rate): 89.9% | activity at 10 µM (MALME-3M; 10 μM, MALME-3M, Melanoma): 77.2% | activity at 10 µM (M14; 10 μM, M14, Melanoma, read-out: Growth percent rate): 103% | activity at 10 µM (MDA-MB-435; 10 μM, MDA-MB-435, Melanoma, read-out: Growth percent rate): 28.9% | activity at 10 µM (SK-MEL-2; 10 μM, SK-MEL-2, Melanoma, read-out: Growth percent rate): 84.7% | activity at 10 µM (SK-MEL-28; 10 μM, SK-MEL-28, Melanoma, read-out: Growth percent rate): 85% | activity at 10 µM (SK-MEL-5; 10 μM, SK-MEL-5, Melanoma, read-out: Growth percent rate): 74.5% | activity at 10 µM (UACC-257; 10 μM, UACC-257, Melanoma, read-out: Growth percent rate): 90.1% | activity at 10 µM (IGROV1; IGROV-1, 10 μM, IGROV1, Ovarian Cancer, read-out: Growth percent rate): 102% | activity at 10 µM (OVCAR-3; 10 μM, OVCAR-3, Ovarian Cancer, read-out: Growth percent rate): 78.1% | activity at 10 µM (OVCAR-4; 10 μM, OVCAR-4, Ovarian Cancer, read-out: Growth percent rate): 101% | activity at 10 µM (OVCAR-8; 10 μM, OVCAR-8, Ovarian Cancer, read-out: Growth percent rate): 92.9% | activity at 10 µM (786–0; 10 μM, 786-0, Renal Cancer, read-out: Growth percent rate): 106% | activity at 10 µM (A498; 10 μM, A498, Renal Cancer, read-out: Growth percent rate): 83.2% | activity at 10 µM (ACHN; 10 μM, Renal Cancer): 103% | activity at 10 µM (CAKI-1; 10 μM, CAKI-1, Renal Cancer, read-out: Growth percent rate): 54.5% | activity at 10 µM (SN12C; 10 μM, Renal Cancer): 89.1% | activity at 10 µM (TK-10; 10 μM, TK-10, Renal Cancer, read-out: Growth percent rate): 99% | activity at 10 µM (DU-145; 10 μM, DU-145, Prostate Cancer, read-out: Growth percent rate): 99.6% | activity at 10 µM (MCF7; 10 μM, MCF7, Breast Cancer, read-out: Growth percent rate): 78% | activity at 10 µM ([1]; 10 μM, mean over 60 human cancer cell lines): 87.8%

Source: PMC11277489, “Novel Piperazine Derivatives of Vindoline as Anticancer Agents” (International Journal of Molecular Sciences, 2024)
